# Assay results: US11980774B2, “Illumination devices and related methods for phototherapeutic light treatments in the presence of vitamins” (priority 2021, dated 2024)
# Test system: South African variant of SARS-CoV-2 (SARS-CoV-2 SA)
# Assay type: cell-based
# Conditions: 10 μM RFN, no ascorbate; 425 nm light 7.5 J/cm^2; FIG. 3B
structure (smiles),measurement,value
Cc1cc2nc3c(=O)[nH]c(=O)nc-3n(C[C@H](O)[C@H](O)[C@H](O)CO)c2cc1C [riboflavin],fold reduction in viral loads of SARS-CoV-2 SA,642 fold
same,reduction in viral loads of SARS-CoV-2 SA,~99.8%
same,reductions in viral loads of SARS-CoV-2 SA,significant reductions
